Our source for the cytotoxicity values is ChEMBL document CHEMBL3507680, “University of Dundee, Gates Library screen for HepG2 cell viability”.

Structures are written as SMILES.

The nature of the data set: Human HepG2 cell viability assay in 384 well format. The class given is toxicity, cell-based. Set-up: dose 125 nL, time 70.5 hour; concentration not given beside the values. The conditions noted are these: HepG2 cells, read-out: Inhibition.
Regarding `CC(C)C(=O)N1CCN(CCOc2cccc(C#N)c2)CC1`, the cytotoxicity at 70.5 h is -5.29%.

In the case of `Cc1nnc(CN(C)CCCOc2ccc(Cl)cc2)o1`, the cytotoxicity at 70.5 h was -10.2%.

Consider `COCC(C)(CCO)NC(=O)Nc1cccc(Br)c1C` (centres undefined), for which the cytotoxicity at 70.5 h turned out to be 7.98%.

Regarding `COCCC(=O)N1CCCC1c1cccc(C)c1C` (centres undefined), the cytotoxicity at 70.5 h was 23.9%.

In the case of `CNS(=O)(=O)c1ccc(CNC(=O)c2ccccn2)cc1`, the cytotoxicity at 70.5 h is -9.5%.

With `COc1cccc(CCNC(=O)CCS(=O)(=O)C2CCCC2)c1`, the cytotoxicity at 70.5 h was -12.4%.

Regarding `Cc1nn(-c2ccccc2)nc1C(=O)NCC(c1ccsc1)N(C)C` (centres undefined), the cytotoxicity at 70.5 h came to 13.1%.

In the case of `Cc1cccc(CCNC(=O)CCS(=O)(=O)C2CCCC2)c1`, the cytotoxicity at 70.5 h was -5.57%.

With `Cc1nnc2n1CCN(C(=O)c1cnc(C3CC3)s1)C2`, the cytotoxicity at 70.5 h was -2.96%.

As for `CS(=O)(=O)NC1CCN(CCc2ccccc2)CC1`, the cytotoxicity at 70.5 h is -9.51%.

In the case of `CC(NC(=O)Nc1nnc(-c2ccccn2)s1)C(=O)OC(C)(C)C` (centres undefined), the cytotoxicity at 70.5 h is -11.7%.

As for `Cc1noc(CS(=O)(=O)CC(=O)NC(C)c2ccccc2)n1` (centres undefined), the cytotoxicity at 70.5 h is -12.5%.

With `CC(C)OC(=O)CCNC(=O)Nc1cccc2ncccc12`, the cytotoxicity at 70.5 h turned out to be 8.18%.

For the compound `CCC(CC)(CC)NC(=O)Nc1nnc(-c2ccccn2)s1`, the cytotoxicity at 70.5 h was -13.2%.

As to `CCOc1cc(CNC(=O)c2cc(-c3ccccn3)no2)ccn1`, the cytotoxicity at 70.5 h is -6.7%.

For the compound `Cc1cccc(C2CCCN2C(=O)CN(C)S(C)(=O)=O)c1C` (centres undefined), the cytotoxicity at 70.5 h is -5.26%.

Consider `CS(=O)(=O)CCSCc1ccc(Br)c(F)c1`, for which the cytotoxicity at 70.5 h is -1.55%.

On to `COCc1noc(-c2nn(-c3ccc(F)c(F)c3)c3c2CCC3)n1`, for which the cytotoxicity at 70.5 h was determined as 26%.

On to `O=C(Nc1ccn(Cc2cccc3cccnc23)n1)C1COCCO1` (centres undefined), for which the cytotoxicity at 70.5 h was -8.35%.

As to `Cc1nc(C2CCCC2)sc1C(N)=O`, the cytotoxicity at 70.5 h was found to be 12%.

For the compound `CS(=O)(=O)CCCSCc1cc(F)cc(Br)c1`, the cytotoxicity at 70.5 h is -4.67%.

For the compound `CC(C)NC(=O)CN(C)C1CCN(c2ccc(C#N)cn2)CC1`, the cytotoxicity at 70.5 h is 0.463%.

On to `CC(C)c1nsc(NC2CC(=O)N(C(C)(C)C)C2)n1` (centres undefined), for which the cytotoxicity at 70.5 h is -8.61%.

For the compound `NC(=O)CCSCc1ccc(Br)c(F)c1`, the cytotoxicity at 70.5 h is -8.58%.

Consider `CCNC(=O)N(C)CCCc1n[nH]c(N)c1C#N`, for which the cytotoxicity at 70.5 h was 17.3%.

As for `COCc1noc(-c2nn(-c3ccc(F)cc3)c3c2CCC3)n1`, the cytotoxicity at 70.5 h is -8.74%.

Take `O=C(NC1CCN(c2cc(-n3ccnc3)ncn2)CC1)c1ccncc1`: the cytotoxicity at 70.5 h is -10.4%.

For the compound `Cc1cc2n(n1)CC(CNCCc1cnn(C)c1)CN2` (centres undefined), the cytotoxicity at 70.5 h is 34.9%.

`Cc1ccc(OCCCNC(=O)Cc2nc3ncccn3n2)cc1`: the cytotoxicity at 70.5 h is -13.7%.

As to `O=C1NCCN1C1CCN(c2ccnc(-c3ccccc3)n2)CC1`, the cytotoxicity at 70.5 h was -7.99%.

With `CC(C)Sc1ccc(C(C)NC(=O)CNS(C)(=O)=O)cc1` (centres undefined), the cytotoxicity at 70.5 h amounted to 17%.

Take `O=C(CCN1CCc2[nH]nc(C(F)(F)F)c2C1)Nc1ccccc1`: the cytotoxicity at 70.5 h is -2.13%.

For the compound `CC(C)N(Cc1ccc(C#N)cc1)C(=O)NCCNc1ncccn1`, the cytotoxicity at 70.5 h was -12.7%.

In the case of `N#Cc1ccc(NC(=O)N2CCCCC2CN2CCCC2=O)cc1` (centres undefined), the cytotoxicity at 70.5 h was -11%.

Consider `FC(F)(F)c1n[nH]c2c1CN(CCc1ccccn1)CC2`, for which the cytotoxicity at 70.5 h stood at 13.8%.

Regarding `CCSc1ccc(C(C)NC(=O)CCS(C)(=O)=O)cc1` (centres undefined), the cytotoxicity at 70.5 h is -9.87%.

For `CN1CCN(C2CCN(c3ccnc(-c4ccccc4)n3)CC2)C1=O`, the cytotoxicity at 70.5 h was determined as 6.14%.

As for `CN(C)c1cc2c(nn1)CCN(C(=O)c1cc3ccccc3[nH]c1=O)C2`, the cytotoxicity at 70.5 h is -15.9%.

In the case of `Cc1cccc(NC(=O)N(CCC(F)(F)F)C[C@H](O)CO)c1`, the cytotoxicity at 70.5 h is -5.55%.

For `CSCCC(C)NC(=O)N1CCSC(C)(C)C1` (centres undefined), the cytotoxicity at 70.5 h was found to be 22.4%.

On to `O=C(c1ncncc1Cl)N1CCC2(CCCC2)CC1`, for which the cytotoxicity at 70.5 h is -5.92%.

For `Cc1nc(NC(=O)OC(C)(C)C)sc1C(=O)O`, the cytotoxicity at 70.5 h stood at 21.2%.

Regarding `c1nc(CSc2nnc(C3CC3)s2)cs1`, the cytotoxicity at 70.5 h worked out at 1.83%.

Consider `CC(C)N(Cc1ccc(C#N)cc1)C(=O)Nc1ccncc1`, for which the cytotoxicity at 70.5 h is -9.08%.

As for `COCCC(C)NC(=O)N1CCSC(C)(C)C1` (centres undefined), the cytotoxicity at 70.5 h is -10.1%.

For `Cc1cnc(CNS(=O)(=O)CCC2CCCO2)o1` (centres undefined), the cytotoxicity at 70.5 h was -12.3%.

Consider `CSCC(C)CNC(=O)N1CCSC(C)(C)C1` (centres undefined), for which the cytotoxicity at 70.5 h is -2.74%.

On to `Cc1ccc(NC(=O)NCC(c2cnn(C)c2)N(C)C)c(C)c1` (centres undefined), for which the cytotoxicity at 70.5 h was -11%.

On to `COCCc1noc(CN(C)c2nccc(C)n2)n1`, for which the cytotoxicity at 70.5 h is -6.87%.

Take `O=S(=O)(NC1CCC2(CC1)OCCO2)c1cccc(Br)c1`: the cytotoxicity at 70.5 h came out at 12%.

As for `CC(C)c1noc(CNc2ccc(OC(F)F)cc2OC(F)F)n1`, the cytotoxicity at 70.5 h stood at 8.88%.

In the case of `O=S(=O)(NC1CC1)c1cccc(Br)c1`, the cytotoxicity at 70.5 h was 3.01%.

Take `O=S(=O)(NC1CCC2(CC1)OCCO2)c1ccccc1Br`: the cytotoxicity at 70.5 h is -1.96%.

In the case of `O=C(Nc1ccc(-n2ccnc2)c(F)c1)C1CCN(C(=O)C2CC2)CC1`, the cytotoxicity at 70.5 h is -1.97%.

Turning to `O=C(Nc1ccc(-n2cncn2)c(F)c1)C1CCN(C(=O)C2CC2)CC1`, the cytotoxicity at 70.5 h stood at 1.9%.

Take `Cc1ccc(-c2n[nH]cc2CNCC2CCc3nnc(C)n3C2)cc1` (centres undefined): the cytotoxicity at 70.5 h is -0.696%.

In the case of `Cc1cccc(CNC(=O)Nc2ccc3c(c2)CCCC(=O)N3)c1`, the cytotoxicity at 70.5 h is -1.4%.

Regarding `Cc1ccc(C(=O)NCCCC2(C3OCCO3)CCOCC2)cc1C`, the cytotoxicity at 70.5 h came out at 1.93%.

Regarding `CCc1ccc(C(=O)NCCCC2(C3OCCO3)CCOCC2)cc1`, the cytotoxicity at 70.5 h was 11.6%.

As to `Cc1cnn(CCCOc2ccc3c(c2)OCO3)c1`, the cytotoxicity at 70.5 h is -0.603%.

For `CCc1nc(C2CCCN2c2ncc(C(N)=O)cc2Cl)no1` (centres undefined), the cytotoxicity at 70.5 h worked out at 3.61%.

Turning to `CCS(=O)(=O)NCCCNc1ncnc2cc(F)c(F)cc12`, the cytotoxicity at 70.5 h is -0.956%.

Take `CCc1nsc(N2CCn3c(nnc3C(F)(F)F)C2)n1`: the cytotoxicity at 70.5 h is 2.89%.

`Cc1cc(NC(=O)N(C)C2CCCN(c3ccccc3)C2=O)n(C)n1` (centres undefined): the cytotoxicity at 70.5 h is -2.17%.

In the case of `O=C(CCc1cscn1)N1CCC(C(=O)O)(c2ccccc2)CC1`, the cytotoxicity at 70.5 h turned out to be 4.76%.

On to `CN1CCN(C(=O)C2CC=CC2)c2ccccc21`, for which the cytotoxicity at 70.5 h came out at 9.41%.

On to `CCc1nc(C2CCCN2c2ncc(C(F)(F)F)cc2Cl)no1` (centres undefined), for which the cytotoxicity at 70.5 h amounted to 1.13%.

Take `CCc1n[nH]c(C2CN(Cc3csc(C4CCCC4)n3)CCO2)n1` (centres undefined): the cytotoxicity at 70.5 h turned out to be 6.69%.

On to `CN(C)c1ccc(NC(=O)N2CCCC2c2ccsc2)cn1` (centres undefined), for which the cytotoxicity at 70.5 h was -12.1%.

Regarding `Cc1cc(C)c(CNc2ncnc3ccsc23)c(=O)[nH]1`, the cytotoxicity at 70.5 h was -9.82%.

Take `COc1ccc(NC(=O)N2CCCCC2c2ncc[nH]2)cc1` (centres undefined): the cytotoxicity at 70.5 h was -7.7%.

In the case of `Cc1cc(C)c(CNc2ncnc3ccccc23)c(=O)[nH]1`, the cytotoxicity at 70.5 h is -2.78%.

Turning to `Cc1cc(C)c(CNc2cnc3ccccc3n2)c(=O)[nH]1`, the cytotoxicity at 70.5 h worked out at 59.4%.

In the case of `N#Cc1ccc(OC2CCN(CC(=O)NCC(F)(F)F)CC2)cc1`, the cytotoxicity at 70.5 h is -12.8%.
